Series [1] in a line: Caco-2 cell monolayers transport assay. The note with it: human, Caco-2. It is filed as in vitro ADME.
The next series is described as follows: In situ rat perfusion. The class given is in vivo. The following applies: 100 μM; for Ka1 absorption rate coefficient: six independent experiments.
A further series deals with Caco-2 monolayers. In words: Caco-2 cell monolayers transport assay. The class given is in vitro ADME. The note with it: Caco-2 monolayers, 20 μM, three independent experiments.
For the next series, the system named is plasmid (pBR322) DNA. Kind of series: Electrophoresis mobility shift assay with plasmid DNA. It is filed as binding. The following applies: 37 °C, 20 h, metal/DNAbp ratios 0.25–2.0.
The test system of series [2] is non-tumorigenic human embryonic kidney cells HEK293T. The class given is cell-based. The note with it: read-out: IC50 HEK-293T; 24 h incubation, MTT, mean ± SD (n = 4).
The test system of the next series is pancreas MiaPaca2. It is filed as cell-based, human. The following applies: read-out: IC50 MiaPaca2; 24 h incubation, MTT, mean ± SD (n = 4).
Series [3] concerns triple-negative breast MDA-MB-231. It is filed as cell-based, human. The following applies: read-out: IC50 MDA-MB-231; 24 h incubation, MTT, mean ± SD (n = 4).
The next series relates to leukemia Jurkat-T. It is filed as cell-based, human. The note with it: read-out: IC50 Jurkat; 24 h incubation, MTT, mean ± SD (n = 4).
For the next series, the system named is prostate DU-145. It is filed as cell-based, human. The note with it: read-out: IC50 DU-145; 24 h incubation, MTT, mean ± SD (n = 4).
In the next series the test system is lung A549. It is filed as cell-based, human. The note with it: read-out: IC50 A549; 24 h incubation, MTT, mean ± SD (n = 4).

On to `COCCc1ccc(OCC(O)CNC(C)C)cc1` (stereo not drawn) [metoprolol], for which the apparent permeability (Papp) at 90 min, 20 μM in [1] is 23.2 ×10⁻⁶ cm/s. In the series “In situ rat perfusion”, the Peff was 5.40 × 10^–5 cm/s and the “Ka1 absorption rate coefficient” value came out at 2.30 h^–1.

On to Lucifer Yellow, for which the Peff in the series on Caco-2 monolayers is 1.90 × 10^–7 cm/s.

In series [1], `CN/C(=N/CCSCc1nc[nH]c1C)NC#N` [cimetidine] yielded an apparent permeability (Papp) at 90 min, 20 μM of 1.86 ×10⁻⁶ cm/s. In “In situ rat perfusion”, the Peff is on record as 3.97 × 10^–5 cm/s and the “Ka1 absorption rate coefficient” value is 1.68 h^–1.

With `CC(C)NCC(O)COc1ccc(CC(N)=O)cc1` (stereo not drawn) [atenolol], the Peff in the series “In situ rat perfusion” is recorded as 5.19 × 10^–6 cm/s.

Consider `N.N.[Cl][Pt][Cl]` [cisplatin], for which the “effect on electrophoretic mobility of plasmid forms” value in the series with plasmid (pBR322) DNA is “able to both increase and decrease the mobility of the OC and the CCC forms”. Besides, the 50% inhibitory concentration (IC50) in series [2] turned out to be 69 ± 6.7 µM; with pancreas MiaPaca2, 76.5 ± 7.4 µM; in [3], 131 ± 18 µM; with leukemia Jurkat-T, 10.8 ± 1.2 µM; in the series on prostate DU-145, 112 ± 33 µM; in the series with lung A549, 114 ± 9.1 µM.

The values above are taken from article PMC4538566 (Journal of Medicinal Chemistry, 2015).
